Assay results: ChEMBL document CHEMBL1932962, “Discovery, design and synthesis of novel potent and selective sphingosine-1-phosphate 4 receptor (S1P₄-R) agonists” (Bioorg Med Chem Lett, 2012); call rule not given here

Assays:
[1] = biological target: T1, Sphingosine 1-phosphate receptor 4 (Homo sapiens, UniProt O95977); experiment: Agonist activity at human S1P4R expressed in human U2OS cells containing EDG6 gene co-expressing GAL4-VP16 and beta-arrestin/TEV protease assessed as migration of VP16-GAL4 into nucleus by […] based beta-lactamase reporter gene assay; type: functional, cell-based
T1 sequence (O95977 whole entry): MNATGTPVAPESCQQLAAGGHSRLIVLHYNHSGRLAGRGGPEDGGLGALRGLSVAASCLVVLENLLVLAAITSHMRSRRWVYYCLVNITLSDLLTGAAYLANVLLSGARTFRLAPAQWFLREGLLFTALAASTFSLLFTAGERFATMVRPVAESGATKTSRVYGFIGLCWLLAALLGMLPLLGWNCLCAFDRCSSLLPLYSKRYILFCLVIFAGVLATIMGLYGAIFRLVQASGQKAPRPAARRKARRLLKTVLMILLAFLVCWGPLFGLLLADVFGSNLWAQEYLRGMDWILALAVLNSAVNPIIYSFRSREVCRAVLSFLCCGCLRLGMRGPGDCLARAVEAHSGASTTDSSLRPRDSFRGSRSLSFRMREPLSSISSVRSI

[2] = biological target: T2, Sphingosine 1-phosphate receptor 4 (Homo sapiens) (UniProt O95977); experiment: Agonist activity at human S1P4R expressed in human U2OS cells containing EDG6 gene co-expressing GAL4-VP16 and beta-arrestin/TEV protease assessed as migration of VP16-GAL4 into nucleus at 2600 nM by […] based beta-lactamase reporter gene assay; type: functional, cell-based
T2 sequence (whole entry): T1 sequence (O95977 whole entry)

[3] = biological target: Sphingosine 1-phosphate receptor 5 (Homo sapiens, UniProt Q9H228); experiment: Agonist activity at S1P5R up to 25 uM; type: functional
Sequence of Sphingosine 1-phosphate receptor 5 (Q9H228 whole entry): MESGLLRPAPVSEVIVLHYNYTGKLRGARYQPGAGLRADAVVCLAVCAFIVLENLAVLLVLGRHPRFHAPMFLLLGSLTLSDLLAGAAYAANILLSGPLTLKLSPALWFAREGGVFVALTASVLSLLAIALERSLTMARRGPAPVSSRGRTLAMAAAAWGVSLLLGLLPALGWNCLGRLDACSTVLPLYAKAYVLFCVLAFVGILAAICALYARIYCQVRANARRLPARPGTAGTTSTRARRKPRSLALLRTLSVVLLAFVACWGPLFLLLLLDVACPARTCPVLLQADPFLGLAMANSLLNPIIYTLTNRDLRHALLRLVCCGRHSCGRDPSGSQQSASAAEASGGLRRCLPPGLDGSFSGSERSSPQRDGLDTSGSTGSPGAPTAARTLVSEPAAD

[4] = biological target: Sphingosine 1-phosphate receptor 1 (Homo sapiens, UniProt P21453); experiment: Agonist activity at S1P1R up to 25 uM; type: functional
Sequence of Sphingosine 1-phosphate receptor 1 (P21453 whole entry): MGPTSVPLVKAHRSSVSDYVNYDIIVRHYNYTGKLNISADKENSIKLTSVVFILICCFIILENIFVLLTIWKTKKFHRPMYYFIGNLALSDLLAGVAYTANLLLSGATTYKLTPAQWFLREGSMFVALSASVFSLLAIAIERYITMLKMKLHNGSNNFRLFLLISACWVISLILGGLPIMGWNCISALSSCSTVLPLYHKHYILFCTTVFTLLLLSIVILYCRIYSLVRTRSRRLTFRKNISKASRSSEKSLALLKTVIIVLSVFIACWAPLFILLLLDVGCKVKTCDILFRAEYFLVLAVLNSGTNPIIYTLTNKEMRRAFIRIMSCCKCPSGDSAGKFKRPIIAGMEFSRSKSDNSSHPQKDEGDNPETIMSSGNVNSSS

[5] = biological target: Sphingosine 1-phosphate receptor 3 (Homo sapiens, UniProt Q99500); experiment: Agonist activity at S1P3R up to 25 uM; type: functional
Sequence of Sphingosine 1-phosphate receptor 3 (Q99500 whole entry): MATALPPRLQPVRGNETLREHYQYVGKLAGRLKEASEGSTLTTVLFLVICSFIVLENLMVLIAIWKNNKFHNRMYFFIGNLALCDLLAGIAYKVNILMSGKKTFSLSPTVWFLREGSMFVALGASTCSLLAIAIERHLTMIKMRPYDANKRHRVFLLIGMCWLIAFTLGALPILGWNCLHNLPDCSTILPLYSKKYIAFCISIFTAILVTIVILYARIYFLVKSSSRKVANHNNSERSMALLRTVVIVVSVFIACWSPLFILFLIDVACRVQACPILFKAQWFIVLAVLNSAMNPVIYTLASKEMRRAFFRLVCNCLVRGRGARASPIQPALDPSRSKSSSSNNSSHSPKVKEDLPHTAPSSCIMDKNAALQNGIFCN

[6] = biological target: Sphingosine 1-phosphate receptor 2 (Homo sapiens, UniProt O95136); experiment: Agonist activity at S1P2R up to 25 uM; type: functional
Sequence of Sphingosine 1-phosphate receptor 2 (O95136 whole entry, the tested form may be a part): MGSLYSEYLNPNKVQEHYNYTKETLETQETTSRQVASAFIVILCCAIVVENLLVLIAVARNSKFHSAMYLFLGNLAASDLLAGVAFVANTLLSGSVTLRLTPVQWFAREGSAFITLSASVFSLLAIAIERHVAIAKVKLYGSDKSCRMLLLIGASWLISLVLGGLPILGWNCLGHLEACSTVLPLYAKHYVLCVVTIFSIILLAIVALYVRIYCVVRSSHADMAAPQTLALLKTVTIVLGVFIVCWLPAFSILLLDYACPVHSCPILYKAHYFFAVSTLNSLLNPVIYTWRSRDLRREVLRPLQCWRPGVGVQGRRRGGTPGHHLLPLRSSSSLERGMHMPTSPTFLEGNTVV

[7] = biological target: T1, Sphingosine 1-phosphate receptor 4; experiment: Agonist activity at human S1P4R expressed in human U2OS cells containing EDG6 gene co-expressing GAL4-VP16 and beta-arrestin/TEV protease assessed as migration of VP16-GAL4 into nucleus up to 25 uM by […] based beta-lactamase reporter gene assay; type: functional, cell-based
[8] = biological target: T2, Sphingosine 1-phosphate receptor 4 (Homo sapiens); experiment: Agonist activity at human S1P4R expressed in human U2OS cells containing EDG6 gene co-expressing GAL4-VP16 and beta-arrestin/TEV protease assessed as migration of VP16-GAL4 into nucleus at 50 uM by […] based beta-lactamase reporter gene assay; type: functional, cell-based
[9] = biological target: T2, Sphingosine 1-phosphate receptor 4 (Homo sapiens); experiment: Agonist activity at human S1P4R expressed in human U2OS cells containing EDG6 gene co-expressing GAL4-VP16 and beta-arrestin/TEV protease assessed as migration of VP16-GAL4 into nucleus at 1300 nM by […] based beta-lactamase reporter gene assay; type: functional, cell-based
[10] = biological target: T2, Sphingosine 1-phosphate receptor 4 (Homo sapiens); experiment: Agonist activity at human S1P4R expressed in human U2OS cells containing EDG6 gene co-expressing GAL4-VP16 and beta-arrestin/TEV protease assessed as migration of VP16-GAL4 into nucleus at 6000 nM by […] based beta-lactamase reporter gene assay; type: functional, cell-based

SMILES | EC50 [1] [nM] | EC50 [7] | also measured
Cc1ccc(OCCOc2ccc(Cl)cc2Cl)c(C)n1 | 2600 |  | inhibition [2]: 65%
FCc1ccc(OCCOc2ccc(Cl)cc2Cl)c(Cl)n1 | 45 |  | EC50 [3]: Not Active; EC50 [4]: Not Active; EC50 [5]: Not Active; EC50 [6]: Not Active
Clc1ccc(OCCOc2ccc(Br)nc2Br)c(Cl)c1 | 46 |  | EC50 [3]: Not Active; EC50 [4]: Not Active; EC50 [5]: Not Active; EC50 [6]: Not Active
Cc1ccc(OCCOc2ccc(Cl)cc2F)c([N+](=O)[O-])n1 | 3100 |  | 
Cc1ccc(OCCOc2ccc(Br)cc2Cl)c([N+](=O)[O-])n1 | 220 |  | EC50 [3]: Not Active; EC50 [4]: Not Active; EC50 [5]: Not Active; EC50 [6]: Not Active
Cc1ccc(NCCOc2ccc(Cl)cc2Cl)c([N+](=O)[O-])n1 |  | Not Active | 
O=Cc1ccc(OCCOc2ccc(Cl)cc2Cl)c(Cl)n1 | 1800 |  | 
Cc1ccc(OCCOc2ccc(Cl)cc2Cl)c([N+](=O)[O-])n1 | 162 |  | EC50 [3]: Not Active; EC50 [4]: Not Active; EC50 [5]: Not Active; EC50 [6]: Not Active
Cc1ccc(OCCOc2ccccc2)c([N+](=O)[O-])n1 |  | Not Active | 
COc1ccc(OCCOc2ccc(C)nc2[N+](=O)[O-])c(Cl)c1 | 3900 |  | 
Cc1ccc(OCCOc2cccc(Cl)c2Cl)c([N+](=O)[O-])n1 |  | Not Active | 
COCc1ccc(OCCOc2ccc(Cl)cc2Cl)c(Cl)n1 |  | Not Active | 
Cc1ccc(OCCOc2ccc(Cl)cc2Cl)cn1 |  | Not Active | 
Cc1ccc(OCCOc2ccc(Cl)cc2Cl)c(-c2ccccc2)n1 |  | Not Active | 
Cc1cc(C)c(OCCOc2ccc(Cl)cc2Cl)c(Br)n1 |  | Not Active | 
O=[N+]([O-])c1nc(Cl)ccc1OCCOc1ccc(Cl)cc1Cl | 304 |  | EC50 [3]: Not Active; EC50 [4]: Not Active; EC50 [5]: Not Active; EC50 [6]: Not Active
Cc1ccc(OCCCOc2ccc(Cl)cc2Cl)c([N+](=O)[O-])n1 |  | Not Active | 
Cc1ccc(OCCOc2ccc(F)cc2F)c([N+](=O)[O-])n1 |  |  | inhibition [8]: 40%
CCc1nc(C)ccc1OCCOc1ccc(Cl)cc1Cl | 7300 |  | 
Cc1ccc(OCCc2ccc(Cl)cc2Cl)c([N+](=O)[O-])n1 |  | Not Active | 
Cc1ccc(OCCOc2ccccc2Cl)c([N+](=O)[O-])n1 |  | Not Active | 
Cc1ccc(OCCOc2cc(Cl)ccc2Cl)c([N+](=O)[O-])n1 |  | Not Active | 
Cc1ccc(OCCOc2ccc(Cl)c(Cl)c2)c([N+](=O)[O-])n1 |  | Not Active | 
O=[N+]([O-])c1ncccc1OCCOc1ccc(Cl)cc1Cl | 2980 |  | 
Cc1ccc(OCCOc2ccc(-c3ccccc3)cc2Cl)c([N+](=O)[O-])n1 |  | Not Active | 
Cc1ccc(OCCOc2ccc(Br)cc2C(F)(F)F)c([N+](=O)[O-])n1 | 601 |  | EC50 [3]: Not Active; EC50 [4]: Not Active; EC50 [5]: Not Active; EC50 [6]: Not Active
Cc1ccc(OCCOc2ccc(Cl)cc2Cl)c([N+](=O)[O-])c1 | 1300 |  | inhibition [9]: 40%

SMILES | EC50 [1] [nM] | EC50 [7] | also measured
COc1cc(Cl)ccc1OCCOc1ccc(C)nc1[N+](=O)[O-] | 5400 |  | 
Cc1ccc(OCCOc2ccc(Cl)cc2Cl)c(CO)n1 |  | Not Active | 
Cc1ccc(OCCOc2c(Cl)cc(Cl)cc2Cl)c([N+](=O)[O-])n1 | 570 |  | EC50 [3]: Not Active; EC50 [4]: Not Active; EC50 [5]: Not Active; EC50 [6]: Not Active
Cc1ccc(OC2CCCC2Oc2ccc(Cl)cc2Cl)c([N+](=O)[O-])n1 (stereo unspecified) |  | Not Active | 
Cc1ccc(OCCOc2ccc(Cl)cc2)c([N+](=O)[O-])n1 |  | Not Active | 
O=Cc1ccc(OCCOc2ccc(Cl)cc2Cl)c(I)n1 | 2100 |  | 
Cc1ccc(OCCOc2ccc(F)cc2Cl)c([N+](=O)[O-])n1 | 2600 |  | 
Clc1ccc(OCCOc2cccnc2Br)c(Cl)c1 | 1300 |  | 
COC(=O)c1nc(C)ccc1OCCOc1ccc(Cl)cc1Cl | 4800 |  | 
OCc1ccc(OCCOc2ccc(Cl)cc2Cl)c(Cl)n1 | 1500 |  | 
OCc1ccc(OCCOc2ccc(Cl)cc2Cl)c(I)n1 | 287 |  | EC50 [3]: Not Active; EC50 [4]: Not Active; EC50 [5]: Not Active; EC50 [6]: Not Active
Cc1ccc(OCCOc2ccc(Cl)cc2Cl)c(C(=O)N(C)C)n1 |  | Not Active | 
Cc1ccc(OCCOc2ccc(C)nc2[N+](=O)[O-])c(C)c1 | 7200 |  | 
Cc1ccc(OCCOc2ccc(Cl)cc2Br)c([N+](=O)[O-])n1 | 232 |  | EC50 [3]: Not Active; EC50 [4]: Not Active; EC50 [5]: Not Active; EC50 [6]: Not Active
Cc1ccc(OCCOc2ccc(Cl)cc2Cl)c(I)n1 | 54 |  | EC50 [3]: Not Active; EC50 [4]: Not Active; EC50 [5]: Not Active; EC50 [6]: Not Active
Cc1ccc(OCCCc2ccc(Cl)cc2Cl)c([N+](=O)[O-])n1 | 920 |  | 
Cc1ccc(OCCOc2ccc(Cl)cc2Cl)c(C(=O)O)n1 |  | Not Active | 
Cc1ccc(OCCOc2ccc(Cl)cc2Cl)c(N)n1 |  | Not Active | 
C=Cc1ccc(OCCOc2ccc(Cl)cc2Cl)c(Cl)n1 | 658 |  | 
Cc1ccc(OC(=O)COc2ccc(Cl)cc2Cl)c([N+](=O)[O-])n1 |  | Not Active | 
CC(C)=Cc1ccc(OCCOc2ccc(Cl)cc2Cl)c(Cl)n1 |  | Not Active | 
Clc1ccc(OCCOc2ccc(-c3ccccc3)nc2Br)c(Cl)c1 | 6000 |  | inhibition [10]: 70%
Cc1ccc(OCCOc2cc(Cl)cc([N+](=O)[O-])c2)c([N+](=O)[O-])n1 | 3500 |  | 
Cc1ccc2oc(COc3ccc(Cl)cc3Cl)nc2n1 |  | Not Active | 
Cc1ccc(OCCOc2ccc(Cl)cc2Cl)c(Br)n1 | 52 |  | EC50 [3]: Not Active; EC50 [4]: Not Active; EC50 [5]: Not Active; EC50 [6]: Not Active
Cc1ccc(OCCOc2ccc([N+](=O)[O-])cc2F)c([N+](=O)[O-])n1 | 2800 |  | 
Fc1ccc(OCCOc2ccc(Cl)cc2Cl)c(Br)n1 | 208 |  | 
